From publication PMC9172283 (Antiviral Research, 2022) come the findings set out here.

One data set concerns the target SARS-CoV-2 M^pro (Severe acute respiratory syndrome coronavirus 2, UniProt P0DTD1). Briefly: FRET-based SARS-CoV-2 M^pro activity assay in vitro. The format is biochemical. The conditions noted are these: for Inhibitory effect on M^pro catalytic activity at fixed concentration: 100 μM, cut-off 50% of inhibition.
A further data set concerns SARS-CoV-2. The experiment in a line: Plaque reduction assay. The conditions noted are these: ratio between CC50 and EC50; SARS-CoV-2, Vero E6 cells. The format is cell-based, SARS-CoV-2/NL/2020 strain. (In general: Plaque reduction counts the foci of infection that form in a cell layer.)
The nature of data set [1]: MTT cell viability assay in Vero E6 cells. The format is cell-based. The settings on record: African green monkey. A general note: Tetrazolium dyes change colour on reduction, which living cells bring about.

SMILES strings stand for the structures.

As to `O=C(NC(Cc1ccccc1)C(=O)NCc1ccccn1)OCc1ccccc1` (centres unmarked) [Compound 12], at SARS-CoV-2 M^pro, the “Inhibitory effect on M^pro catalytic activity at fixed concentration” value (“Inhibitory effect” for short) is on record as “not a significant inhibitory effect”. The “SI, Selectivity Index” value in the data set with SARS-CoV-2 was 21. Further, half-maximal cytotoxicity in data set [1] (CC50 at 72 h) was put at 428 ± 11 µM.
For the compound `CCC(C)NC(=O)c1ccccc1NC(=O)c1ccc(C)c(S(=O)(=O)Nc2cccc(NC(=O)c3ccccc3)c2)c1` (centres unmarked) [Compound 30], the “SI, Selectivity Index” value in the data set with SARS-CoV-2 is >10. Also, in data set [1], the CC50 (commonly the concentration that lowers cell viability or growth by half) at 72 h is > 500 µM.
For `CC(NC(=O)C(=O)NCCN1CCOCC1)C(c1cccs1)N1CCN(c2ccccc2)CC1` (centres unmarked) [Compound 2], in that order: >10 and > 500 µM.
In the same order, the values of `CCOC(=O)C1=C(CN2CCC(NC(=O)OC(C)(C)C)CC2)NC(=O)NC1c1ccccc1` (centres unmarked) [Compound 17] are >5 and 228 ± 6 µM.
In the same order, the values of `CCOC(=O)C1=C(CN2CCCN(C(=O)OC(C)(C)C)CC2)NC(=O)NC1c1ccc(C)cc1` (centres unmarked) [Compound 15] are 8 and 113 ± 3 µM.
With `COc1ccc(C(=O)CN(C(=O)c2ccc(Cl)cc2)N2C(=O)CCC2=O)cc1` [Compound 20], the “SI, Selectivity Index” value with SARS-CoV-2 is listed as >10. For the same compound, the CC50 at 72 h in data set [1] was > 500 µM.
In the case of `COc1ccc(C(=O)Nc2ccccc2C(=O)N[C@H](C(=O)Nc2ccccc2)C(C)C)cc1` [Compound 31, (S)-2-(4-Methoxybenzamido)-N-(3-methyl-1-oxo-1-(phenylamino)butan-2-yl)benzamide], inhibition on SARS-CoV-2 M^pro was half-maximal at 43.7 ± 9.2 µM (IC50). Moreover, the “Fold increase of inhibitory potency against M^pro compared to parental hit 7” value at SARS-CoV-2 M^pro (compared to hit 7) is given as > 2 fold. Moreover, the “SI, Selectivity Index” value in the data set on SARS-CoV-2 was >5. Also, the CC50 at 72 h in data set [1] was > 250 µM.
For `O=C(Nc1ccccc1C(=O)NCc1ccccc1)c1cc(S(=O)(=O)N2CCOCC2)ccc1F` [Compound 9], the “SI, Selectivity Index” value with SARS-CoV-2 is recorded as >10. Moreover, in data set [1], the CC50 at 72 h was > 500 µM.
With `COc1ccc(-c2cc(C(F)(F)F)n3ncc(C(=O)Nc4sc5c(c4C(N)=O)CCCC5)c3n2)cc1` [Compound 26], on SARS-CoV-2 M^pro, the IC50 (in general, the concentration that inhibits the measured activity by half) amounted to 57.6 ± 4.1 µM and the “Inhibitory effect” value is recorded as “exerted an inhibitory effect”. Moreover, the “SI, Selectivity Index” value in the data set on SARS-CoV-2 was 7. In addition, it took 68.9 ± 10 µM to reach half-maximal cytotoxicity in data set [1] (CC50 at 72 h).
For the compound `CCOC(=O)C(NC(=O)COc1ccccc1)(Nc1nc2ccccc2s1)C(F)(F)F` (centres unmarked) [Compound 8], in the data set with SARS-CoV-2, the “SI, Selectivity Index” value came out at 3. The same compound gave a CC50 at 72 h in data set [1] of 68.8 ± 15.4 µM.
At SARS-CoV-2 M^pro, `CC(C)[C@H](NC(=O)c1ccccc1NC(=O)c1ccc(O)cc1)C(=O)N[C@H](CO)C(C)C` [Compound 35, N-((S)-1-(((S)-1-Hydroxy-3-methylbutan-2-yl)amino)-3-methyl-1-oxobutan-2-yl)-2-(4-hydroxybenzamido)benzamide] returned an IC50 of 19 ± 8.4 µM. For the same compound, in the data set on SARS-CoV-2, the “SI, Selectivity Index” value is on record as >10. In data set [1], the CC50 at 72 h is > 250 µM.
As for `CCOc1ccc(NC(=O)C(=O)NCCc2csc3nc(-c4cccs4)nn23)cc1` [Compound 1], at SARS-CoV-2 M^pro, the IC50 was found to be 142 ± 12 µM and the “Inhibitory effect” value is recorded as “exerted an inhibitory effect”. Also, in the data set with SARS-CoV-2, the “SI, Selectivity Index” value was >10. Besides, the CC50 at 72 h in data set [1] is > 500 µM.
Consider `COc1ccc(C(=O)Nc2ccccc2C(=O)N[C@H](C(=O)NC2CCCCC2)C(C)C)cc1` [Compound 33, (S)-N-(1-(Cyclohexylamino)-3-methyl-1-oxobutan-2-yl)-2-(4-methoxybenzamido)benzamide], for which inhibition on SARS-CoV-2 M^pro was half-maximal at 26.7 ± 7.3 µM (IC50). Also, in the data set on SARS-CoV-2, the “SI, Selectivity Index” value is >7. Besides, in data set [1], the CC50 at 72 h was > 250 µM.
Consider `COc1ccc2c(c1)c(CC(=O)O)c(C)n2C(=O)c1ccc(Cl)cc1` [Compound 21], for which the “SI, Selectivity Index” value with SARS-CoV-2 was >10. Besides, the CC50 at 72 h in data set [1] is > 500 µM.
As to `COC(=O)C1=C(CN2CCN(C(=O)OC(C)(C)C)CC2)NC(=O)NC1c1ccccc1` (centres unmarked) [Compound 16], the “SI, Selectivity Index” value with SARS-CoV-2 amounted to 10. Also, the midpoint of cytotoxicity in data set [1], the CC50 at 72 h, lay at 401 ± 52 µM.
Regarding `CCN1CCN(C(C(=O)O)c2c[nH]c3ccc(NC(=O)CCC(=O)O)cc23)CC1` (centres unmarked) [Compound 14], the “SI, Selectivity Index” value with SARS-CoV-2 is >10. In addition, the CC50 at 72 h in data set [1] was > 500 µM.
Take `CCc1cc(Br)cc2c(C(=O)N3CCOCC3)cc(-c3ccc(OC)cc3)nc12` [Compound 19]: the “Inhibitory effect” value on SARS-CoV-2 M^pro was “not a significant inhibitory effect”. Also, the “SI, Selectivity Index” value with SARS-CoV-2 is on record as 32. Also, in data set [1], the CC50 at 72 h amounted to 228 ± 69 µM.
`COc1ccc(Cc2nn3c([C@@H](CCCc4ccccc4)[C@@H](C)O)nc(C)c3c(=O)[nH]2)cc1OC` [Compound 23]: on SARS-CoV-2 M^pro, the “Inhibitory effect” value is “not a significant inhibitory effect”.
Turning to `CCNC(=O)[C@@H](NC(=O)c1ccccc1NC(=O)c1ccc(OC)cc1)C(C)C` [Compound 34, (S)-N-(1-(Ethylamino)-3-methyl-1-oxobutan-2-yl)-2-(4-methoxybenzamido)benzamide], the “SI, Selectivity Index” value in the data set with SARS-CoV-2 was >5. Besides, the CC50 at 72 h in data set [1] is > 250 µM.
Consider `COc1ccc(-c2ocnc2C(=O)NCCCn2cncn2)cc1Cl` [Compound 24], for which the “Inhibitory effect” value on SARS-CoV-2 M^pro is “not a significant inhibitory effect”. Further, the CC50 at 72 h in data set [1] is > 500 µM.
Consider `COc1ccc(NC2=NC(=O)CC(C(=O)NCc3ccccc3)N2)cc1` (centres unmarked) [Compound 13], for which, in the data set with SARS-CoV-2, the “SI, Selectivity Index” value is reported as >10. For the same compound, in data set [1], the CC50 at 72 h is > 500 µM.
In the case of `COc1ccc(C(=O)Nc2ccccc2C(=O)N[C@H](C(=O)N[C@H](CO)C(C)C)C(C)C)cc1` [Compound 32, N-((S)-1-(((S)-1-Hydroxy-3-methylbutan-2-yl)amino)-3-methyl-1-oxobutan-2-yl)-2-(4-methoxybenzamido)benzamide], the IC50 on SARS-CoV-2 M^pro was > 200 µM. Also, the “SI, Selectivity Index” value with SARS-CoV-2 is listed as >8. In addition, in data set [1], the CC50 at 72 h is > 250 µM.
Regarding `COc1ccc(C(=O)COC(=O)C(Cc2ccccc2)N2C(=O)C3C4C=CC(C4)C3C2=O)cc1` (centres unmarked) [Compound 18], in the data set with SARS-CoV-2, the “SI, Selectivity Index” value was >10. The CC50 at 72 h in data set [1] was > 500 µM.
`Cc1ccc(-c2cc(C(F)(F)F)n3ncc(C(=O)Nc4sc5c(c4C(N)=O)CCCC5)c3n2)cc1` [Compound 27]: on SARS-CoV-2 M^pro, the IC50 was 46.2 ± 7.7 µM and the “Inhibitory effect” value is “exerted an inhibitory effect”. For the same compound, the “SI, Selectivity Index” value in the data set with SARS-CoV-2 amounted to 5. In data set [1], this compound had a CC50 at 72 h of 67.9 ± 16.5 µM.
With `Nc1ncnc2c1ncn2[C@@H]1O[C@H](CSCC[C@H](N)C(=O)O)[C@@H](O)[C@H]1O` [Compound 22], in the data set with SARS-CoV-2, the “SI, Selectivity Index” value is reported as >10. Also, the CC50 at 72 h in data set [1] is > 500 µM.
As to `O=C(CCC(=O)NNC(=O)C(c1ccccc1)c1ccccc1)NCc1ccccc1` [Compound 10], on SARS-CoV-2 M^pro, the IC50 stood at 128 ± 18.8 µM and the “Inhibitory effect” value is listed as “exerted an inhibitory effect”. In the data set on SARS-CoV-2, the “SI, Selectivity Index” value was >10. Further, the CC50 at 72 h in data set [1] was > 500 µM.
Consider `CC(=O)NCC(=O)NC1(C(=O)NC(c2ccccc2)c2ccccc2)CCCCC1` [Compound 11], for which the “SI, Selectivity Index” value in the data set with SARS-CoV-2 is given as >10. For the same compound, in data set [1], the CC50 at 72 h was > 500 µM.
For `NC(=O)c1c(NC(=O)c2cnn3c(C(F)F)cc(-c4ccccc4)nc23)sc2c1CCCC2` [Compound 28], in that order: >5 and > 250 µM.
As to `COc1ccc(C(=O)Nc2ccccc2C(=O)NC(C(=O)Nc2ccccc2)C(C)C)cc1` (centres unmarked) [Compound 7], on SARS-CoV-2 M^pro, the IC50 is 111 ± 2.2 µM and the “Inhibitory effect” value is listed as “exerted an inhibitory effect”. In the data set with SARS-CoV-2, the “SI, Selectivity Index” value was >10. In addition, the CC50 at 72 h in data set [1] was > 500 µM.
